Converted amounts (≈) assume the structure as drawn. Read-outs that look alike come from different tables or passages of the source. *1 amine or outer side, *2 acyl side, *3 side chain or, on linkers, in order; H or OH if unused. Where a SMILES comes first, the peptide text is derived from it. Bridges are numbered along the chain shown (N, C = ends). [ ]: non-standard residue; d: D form. The star is where a group is joined. Phe(3,5-F2) = N[C@@H](Cc1cc(F)cc(F)c1)C(=O)O; Morpholine(3S-CO) = O=C(O)[C@@H]1COCCN1; Pro(4R-Me) = C[C@H]1CN[C@H](C(=O)O)C1; NH(3,4-Me2-phenyl) = Cc1ccc(N*)cc1C; Hyp = O=C(O)[C@@H]1C[C@@H](O)CN1; NH(4-Et-phenyl) = CCc1ccc(N*)cc1; Heptenoyl(2E) = CCCC/C=C/C(=O)*; aThr = C[C@H](O)[C@H](N)C(=O)O; Pip = O=C(O)[C@@H]1CCCCN1; X4 = c1cc2c(cc1N*)CCC2; X8 = c1cc2c(cc1N*)CCO2; X6 = Cc1cc(C)cc(N*)c1; CO = O=C([*:1])[*:2]; X7 = CC/C=C/C(=O)*
Legend:
Sa-ClpP = target: T1, Sa-ClpP (Staphylococcus aureus, UniProt Q2G036); assay: ADEP displacement fluorescence polarization assay (FP probe ADEP 2591); assay type: binding
T1 construct: made in house; host or cells: E. coli BL21(DE3)
T1 sequence (Q2G036 1-195): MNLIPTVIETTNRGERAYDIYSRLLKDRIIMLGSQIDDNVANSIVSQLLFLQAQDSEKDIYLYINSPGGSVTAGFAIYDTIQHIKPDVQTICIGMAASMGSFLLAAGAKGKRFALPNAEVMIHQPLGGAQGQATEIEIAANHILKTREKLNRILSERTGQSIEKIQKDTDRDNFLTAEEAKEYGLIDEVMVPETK
Procedure: A fluorescence polarization (FP) assay was used to determine the activity of the disclosed compounds in displacing an ADEP analogue from ClpP. Briefly, the assay was performed in black 384 well, flat bottom, low volume plates (Greiner Bio-One, Monroe, N.C., catalog #784076). 20 μL of a pre-equilibrated (1 hr, room temperature) master mix (15 μM Sa-ClpP, 2% DMSO (v/v) and 50 nM FP probe in Tris*HCl, pH 8.0)) was pipetted into each well using a Well-Mate (Thermo Scientific, Waltham, Mass.). Sa-ClpP was prepared as described above for the ClpP activation assay. The FP probe was ADEP 2591 (structure shown above). The ADEP 2591 comprises a TAMRA fluorophore linked to a core based on modified ADEP 2378 via a short alkyl linker. Using pin transfer, approximately 0.4 μL (2% v/v DMSO) of each compound or control was added per well. After addition of compounds and controls, plates were allowed to incubate for an additional 120 minutes at room temperature. All assays were performed in triplicate. Polarization was monitored using an EnVision Multilabel reader (Perkin-Elmer, Waltham, Mass.) by exciting the FP probe at 530±25 nm, and monitoring fluorescence intensity of both parallel and perpendicular polarized light at 579±25 nm. Readout was in millipolarization units (mP).
Data collected was normalized to values obtained from positive (200 μM ADEP 2378) or negative (DMSO) controls. Curves were fit with non-linear regression using the equation “log [inhibitor] vs. Response-variable slope (four parameters)-symmetrical” in the program Prism 6 (GraphPad Software, La Jolla, Calif. USA, www.graphpad.com). The structures for ADEP 2378 and ADEP 2591 are shown above. ADEP 2378 is (E)-N—((S)-1-(((2R,6S,8aS,14aS,20S,23aS)-2,6-dimethyl-5,8,14,19,23-pentaoxooctadecahydro-1H,5H,14H,19H-pyrido[2,1-i]dipyrrolo[2,1-c:2′,1′-1][1]oxa[4,7,10,13]tetraazacyclohexadecin-20-yl)amino)-1-oxo-3-phenylpropan-2-yl)pent-2-enamide. ADEP 2591 is 5-(3-(3-((6S,9S,11aS,17S,20aS)-6,10-dimethyl-5,8,11,16,20-pentaoxo-17-((S)-2-((E)-pent-2-enamido)-3-phenylpropanamido)hexadecahydro-1H,5H,16H-dipyrrolo[2,1-c:2′,1′-1][1]oxa[4,7,10,13]tetraazacyclohexadecin-9-yl)propyl)thioureido)-2-(6-(dimethylamino)-3-(dimethyliminio)-3H-xanthen-9-yl)benzoate.

[1] = tested on: Staphylococcus aureus, ATCC 29213; assay: Minimal inhibitory concentration assay (microbroth dilution); assay type: cell-based; conditions: ATCC29213, read-out: Minimal Inhibitory Concentrations S. aureus ATCC 29213
Procedure, shortened: (§1)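 Paired MICs against USA 300 and its ClpP-inactivated counterpart test whether killing runs through ClpP. All strains: two-fold broth dilutions from 200 μM final, ~10^5 cfu/mL inoculum, overnight at 37 °C in air, lowest growth-free concentration read by eye.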

[2] = tested on: Bacillus subtilis, ATCC 23857; assay: as above; assay type: cell-based
Procedure, shortened: as §1

[3] = tested on: Staphylococcus aureus, NRS70; assay: as above; assay type: cell-based
Procedure, shortened: as §1

[4] = Cytotoxicity assay (CellTiter-Glo cell viability, 72 hours); assay type: cell-based; conditions: African green monkey
Procedure, shortened: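 Viability measured by CellTiter-Glo luminescence after 72-hour compound exposure (serial dilutions, DMSO control) of Vero monolayers seeded at 5000 cells/well in 10% FBS DMEM. IC50 values are the range of two biologically independent experiments, each run in duplicate.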

[5] = Staphylococcus aureus, NRS70; read-out: Minimal Inhibitory Concentrations S. aureus NRS70
[6] = Bacillus subtilis, ATCC23857, read-out: Minimal Inhibitory Concentrations B. subtilis ATCC 23857
[7] = Staphylococcus aureus, NRS70, read-out: Minimal Inhibitory Concentrations S. aureus NRS70
[8] = Vero cells, 72 hours, growth inhibition, read-out: Cytotoxicity IC50

Row | Compound | IC50 (Sa-ClpP) [µM] | MIC [1] [µM] | MIC ([2]; Bacillus subtilis, ATCC23857; read-out: Minimal Inhibitory Concentrations B. subtilis ATCC 23857) [µM] | MIC [3, 5] [µM] | MIC [2, 6] [µM] | MIC [3, 7] [µM] | IC50 at 72 h [4, 8] [µM] | IC50 at 72 h [4] [µM]
1 | CCc1ccc(NC(=O)N[C@@H](Cc2cc(F)cc(F)c2)C(=O)N[C@@H]2C(=O)N3C[C@H](O)C[C@H]3C(=O)N3CCCC[C@H]3C(=O)N[C@@H](C)C(=O)N3C[C@H](C)C[C@H]3C(=O)O[C@H]2C)cc1 [Compound 211, (S)-3-(3,5-difluorophenyl)-2-(3-(4-ethylphenyl)ureido)-N-((2R,6S,8aS,14aS,16R,20S,21S,23aS)-16-hydroxy-2,6,21-trimethyl-5,8,14,19,23-pentaoxooctadecahydro-1H,5H,14H,19H-pyrido[2,1-i]dipyrrolo[2,1-c:2′,1′-l][1]oxa[4,7,10,13]tetraazacyclohexadecin-20-yl)propanamide] ({NH(4-Et-phenyl)-CO}-[Phe(3,5-F2)][aThr][Hyp][Pip]A[Pro(4R-Me)]; ester 2-C) | 6.8 ± 0.3 | 0.04 (≈ 0.0335 µg/mL) | 0.8 (≈ 0.67 µg/mL) | 0.02 (≈ 0.0168 µg/mL) |  |  |  | 
2 | Cc1ccc(NC(=O)N[C@@H](Cc2cc(F)cc(F)c2)C(=O)N[C@@H]2C(=O)N3C[C@H](O)C[C@H]3C(=O)N3CCCC[C@H]3C(=O)N[C@@H](C)C(=O)N3C[C@H](C)C[C@H]3C(=O)O[C@H]2C)cc1C [Compound 212, (S)-3-(3,5-difluorophenyl)-2-(3-(3,4-dimethylphenyl)ureido)-N-((2R,6S,8aS,14aS,16R,20S,21S,23aS)-16-hydroxy-2,6,21-trimethyl-5,8,14,19,23-pentaoxooctadecahydro-1H,5H,14H,19H-pyrido[2,1-i]dipyrrolo[2,1-c:2′,1′-l][1]oxa[4,7,10,13]tetraazacyclohexadecin-20-yl)propanamide] ({NH(3,4-Me2-phenyl)-CO}-[Phe(3,5-F2)][aThr][Hyp][Pip]A[Pro(4R-Me)]; ester 2-C) | 6.9 ± 0.3 | 0.005 (≈ 0.00419 µg/mL) |  |  | < 0.2 | 0.002 (≈ 0.00168 µg/mL) |  | 
3 | Cc1ccc(NC(=O)N[C@@H](Cc2cc(F)cc(F)c2)C(=O)N[C@@H]2C(=O)N3C[C@H](O)C[C@H]3C(=O)N3CCOC[C@H]3C(=O)N[C@@H](C)C(=O)N3C[C@H](C)C[C@H]3C(=O)O[C@H]2C)cc1C [Compound 215, (S)-3-(3,5-difluorophenyl)-2-(3-(3,4-dimethylphenyl)ureido)-N-((6aS,8R,12S,13S,15aS,17R,21S,23aS)-8-hydroxy-13,17,21-trimethyl-6,11,15,20,23-pentaoxooctadecahydro-6H,11H,15H-[1,4]oxazino[3,4-i]dipyrrolo[2,1-c:2′,1′-l][1]oxa[4,7,10,13]tetraazacyclohexadecin-12-yl)propanamide] ({NH(3,4-Me2-phenyl)-CO}-[Phe(3,5-F2)][aThr][Hyp][Morpholine(3S-CO)]A[Pro(4R-Me)]; ester 2-C) | 6.8 ± 0.3 | 0.4 (≈ 0.336 µg/mL) |  |  | 3.1 (≈ 2.6 µg/mL) | 0.8 (≈ 0.672 µg/mL) |  | 
4 | CC/C=C/C(=O)N[C@@H](Cc1cc(F)cc(F)c1)C(=O)N[C@@H]1C(=O)N2C[C@H](O)C[C@H]2C(=O)N2CCCC[C@H]2C(=O)N[C@@H](C)C(=O)N2C[C@H](C)C[C@H]2C(=O)O[C@H]1C [Compound 300] (X7-[Phe(3,5-F2)][aThr][Hyp][Pip]A[Pro(4R-Me)]; ester 2-C) | 5.94 ± 0.3 | 1.9 (≈ 1.47 µg/mL) |  |  |  | 2.5 (≈ 1.93 µg/mL) | > 100 | 
5 | CCCC/C=C/C(=O)N[C@@H](Cc1cc(F)cc(F)c1)C(=O)N[C@@H]1C(=O)N2C[C@H](O)C[C@H]2C(=O)N2CCCC[C@H]2C(=O)N[C@@H](C)C(=O)N2C[C@H](C)C[C@H]2C(=O)O[C@H]1C [Compound 301, (E)-N—((S)-3-(3,5-difluorophenyl)-1-(((2R,6S,8aS,14aS,16R,20S,21S,23aS)-16-hydroxy-2,6,21-trimethyl-5,8,14,19,23-pentaoxooctadecahydro-1H,5H,14H,19H-pyrido[2,1-i]dipyrrolo[2,1-c:2′,1′-l][1]oxa[4,7,10,13]tetraazacyclohexadecin-20-yl)amino)-1-oxopropan-2-yl)hept-2-enamide] ({Heptenoyl(2E)}-[Phe(3,5-F2)][aThr][Hyp][Pip]A[Pro(4R-Me)]; ester 2-C) | 7.07 ± 0.3 | 0.079 (≈ 0.0633 µg/mL) |  |  |  | 0.079 (≈ 0.0633 µg/mL) | 61.1 ± 1.7 | 
6 | C[C@@H]1C[C@H]2C(=O)O[C@@H](C)[C@H](NC(=O)[C@H](Cc3cc(F)cc(F)c3)NC(=O)Nc3ccc4c(c3)CCC4)C(=O)N3CCC[C@H]3C(=O)N3CCCC[C@H]3C(=O)N[C@@H](C)C(=O)N2C1 [Compound 302, (S)-3-(3,5-difluorophenyl)-2-(3-(2,3-dihydro-1H-INDEN-5-yl)ureido)-N-((2R,6S,8aS,14aS,20S,21S,23aS)-2,6,21-trimethyl-5,8,14,19,23-pentaoxooctadecahydro-1H,5H,14H,19H-pyrido[2,1-i]dipyrrolo[2,1-c:2′,1′-l][1]oxa[4,7,10,13]tetraazacyclohexadecin-20-yl)propanamide] ({X4-CO}-[Phe(3,5-F2)][aThr]P[Pip]A[Pro(4R-Me)]; ester 2-C) | 9.64 ± 0.6 | 0.059 (≈ 0.0492 µg/mL) |  |  |  | 0.039 (≈ 0.0325 µg/mL) | 13.2 ± 1.1 | 
7 | Cc1cc(C)cc(NC(=O)N[C@@H](Cc2cc(F)cc(F)c2)C(=O)N[C@@H]2C(=O)N3CCC[C@H]3C(=O)N3CCCC[C@H]3C(=O)N[C@@H](C)C(=O)N3C[C@H](C)C[C@H]3C(=O)O[C@H]2C)c1 [Compound 304, (S)-3-(3,5-difluorophenyl)-2-(3-(3,5-dimethylphenyl)ureido)-N-((2R,6S,8aS,14aS,20S,21S,23aS)-2,6,21-trimethyl-5,8,14,19,23-pentaoxooctadecahydro-1H,5H,14H,19H-pyrido[2,1-i]dipyrrolo[2,1-c:2′,1′-l][1]oxa[4,7,10,13]tetraazacyclo-hexadecin-20-yl)propanamide] ({X6-CO}-[Phe(3,5-F2)][aThr]P[Pip]A[Pro(4R-Me)]; ester 2-C) | 6.52 ± 0.3 | 0.079 (≈ 0.0649 µg/mL) |  | 0.059 (≈ 0.0485 µg/mL) |  |  |  | 21.3 ± 1.6
8 | C[C@@H]1C[C@H]2C(=O)O[C@@H](C)[C@H](NC(=O)[C@H](Cc3cc(F)cc(F)c3)NC(=O)Nc3ccc4c(c3)CCO4)C(=O)N3CCC[C@H]3C(=O)N3CCCC[C@H]3C(=O)N[C@@H](C)C(=O)N2C1 [Compound 305, (S)-3-(3,5-difluorophenyl)-2-(3-(2,3-dihydrobenzofuran-5-yl)ureido)-N-((2R,6S,8aS,14aS,20S,21S,23aS)-2,6,21-trimethyl-5,8,14,19,23-pentaoxooctadecahydro-1H,5H,14H,19H-pyrido[2,1-i]dipyrrolo[2,1-c:2′,1′-l][1]oxa[4,7,10,13]tetraazacyclo-hexadecin-20-yl)propanamide] ({X8-CO}-[Phe(3,5-F2)][aThr]P[Pip]A[Pro(4R-Me)]; ester 2-C) | 7.65 ± 0.5 | 0.24 (≈ 0.201 µg/mL) |  |  |  | 0.24 (≈ 0.201 µg/mL) | 39 ± 2.7 | 

Source: patent US10457707B2, “Substituted urea depsipeptide analogs as activators of the CLPP endopeptidase” (priority 2015, dated 2019)
